Laboratory results taken from patent US20240307409A1, “ARGININE METHYLTRANSFERASE INHIBITOR AND USE THEREOF” (Cytosinlab Therapeutics Co., Ltd., priority 2021, published 2024).

Legend:
Assay type in all cases: biochemical
[1] = molecular target: PRMT5 (Homo sapiens, UniProt O14744); experiment: PRMT panel selectivity test, PRMT5
Method: [The procedure below names another target; the source says it served here with some conditions changed.] (§1) PRMT1 enzyme activity test were performed in a buffer prepared on the same day 5 consisting of 10 mMTirs-HCl (pH=8.0), 0.01% Tween-20 and 1 mM DTT. The compounds were prepared to the highest inhibitor concentration ultimately required in the 100× reaction with 100% DMSO and then transferred to one well of a 384-well Echo plate (Echo-eligible 384-well polypropylene microplates 2.0, transparent, flat-bottomed) and sequentially diluted in the next well with a 3-fold dilution of 100% DMSO, and so on, with a total of 10 concentrations based on Precision. 100% DMSO was added to two empty wells to serve as control well without compound and control well without enzyme in the same 384-well Echo plate. 250 nL of compound was transferred from each well of the 384-well Echo plate to a 384-well assay plate (384-well polypropylene storage microplate) via the Echo 550 liquid processor. For wells with compounds and control well without compound, a mixture (15 uL) containing PRMT1 enzyme was added to the 384-well assay plate. For control wells without enzyme, the mixture containing the assay buffer (15 uL) was added instead. The compounds were allowed to incubate with PRMT1 for 15 minutes at room temperature, and then a mixture containing ^3H-SAM and peptide (10 uL) was added to start the reaction (final volume=25 uL). […] After 120 min of incubation, the assay was terminated by the addition of non-radiolabeled SAM (5 uL) to a final concentration of 125 uM, which diluted 3H-SAM to a level at which its incorporation into the peptide substrate was no longer detected. […] Plates were read on a microplate counter (MicroBeta2) to measure the amount of ^3H-labeled peptide bound to the surface of the detection plate, measured in counts per minute (cpm).
(§2) The raw data were copied from the Reader and the inhibition values were calculated in Excel by Equation (1), Equation (1): Inh %=(CPMmax−CPMcmpd)/(CPMmax−CPMmin)*100, wherein the Max signal was obtained from the enzyme-substrate interaction and the Min signal was obtained from the substrate. […]

[2] = molecular target: T1, PRMT7 (Homo sapiens, UniProt Q9NVM4); experiment: PRMT panel selectivity test, PRMT7
T1 sequence (Q9NVM4 1-692): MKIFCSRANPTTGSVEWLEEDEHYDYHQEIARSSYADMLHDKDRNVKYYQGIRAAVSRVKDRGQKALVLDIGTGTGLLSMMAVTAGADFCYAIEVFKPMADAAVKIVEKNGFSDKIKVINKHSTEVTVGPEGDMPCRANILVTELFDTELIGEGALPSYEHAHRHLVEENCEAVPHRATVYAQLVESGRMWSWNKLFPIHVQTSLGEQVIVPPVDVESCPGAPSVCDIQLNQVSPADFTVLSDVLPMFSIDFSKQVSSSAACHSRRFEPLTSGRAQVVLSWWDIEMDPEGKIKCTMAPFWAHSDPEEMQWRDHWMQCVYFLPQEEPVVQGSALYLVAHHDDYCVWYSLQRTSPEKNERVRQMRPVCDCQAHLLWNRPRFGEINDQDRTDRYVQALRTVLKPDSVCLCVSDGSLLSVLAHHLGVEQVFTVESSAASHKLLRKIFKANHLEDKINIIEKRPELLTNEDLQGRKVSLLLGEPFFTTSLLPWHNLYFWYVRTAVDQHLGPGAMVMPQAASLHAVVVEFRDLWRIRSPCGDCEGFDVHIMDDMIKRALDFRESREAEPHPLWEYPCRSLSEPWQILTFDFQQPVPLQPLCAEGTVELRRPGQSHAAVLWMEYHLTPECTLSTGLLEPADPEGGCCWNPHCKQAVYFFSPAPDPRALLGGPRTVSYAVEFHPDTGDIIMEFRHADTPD
Method: [The procedure below names another target; the source says it served here with some conditions changed.] as §1, §2

[3] = molecular target: PRMT8 (Homo sapiens, UniProt Q9NR22); experiment: PRMT panel selectivity test, PRMT8
Method: [The procedure below names another target; the source says it served here with some conditions changed.] This experiment was assayed in a buffer prepared on the same day consisting of 10 mMTirs-HCl (pH=8.0), […] and 1 mM DTT. The compounds were prepared to the highest inhibitor concentration ultimately required in the 100× reaction with 100% DMSO and then transferred to one well of a 384-well Echo plate (Echo-eligible 384-well polypropylene microplates 2.0, transparent, flat-bottomed) and sequentially diluted in the next well with a 3-fold dilution of 100% DMSO, and so on, with a total of 10 concentrations based on Precision. 100% DMSO was added to two empty wells as control well without compound and control well without enzyme in the same 384-well Echo plate. 100 nL of compound was transferred from each well of the 384-well Echo plate to a 384-well assay plate (OptiPlate (384-well, white)) via the Echo 550 liquid processor. For wells with compounds and control well without compound, a mixture containing PRMT1 enzyme (5 uL) was added to the 384-well assay plate. For control well without enzyme, a mixture containing test buffer (5 uL) was added instead. The compounds were allowed to incubate with PRMT3 for 15 minutes at room temperature, and then a mixture containing cold SAM and peptide (5 uL) was added to start the reaction (final volume=10 uL). The final concentrations of the components were as follows: 0.1 nM for PRMT3, 15 uM for SAM, 0.05 uM for peptide, and 1% DMSO. After 60 min of incubation at room temperature, the reaction was terminated by the addition of donor and acceptor magnetic beads (15 uL) with a final concentration of 10 ug/mL diluted with AlphaLISA Epigenetics Buffer. The 384-well assay plate was incubated at room temperature for 60 min and the relative fluorescence units (RFU) were nextly determined using a multi-mode plate reader in Alpha mode (Ex680/Em615).
Curve fitting: the raw data were copied from Reader and the inhibition values were calculated in Excel by equation (1). […]

Chain of PRMT5 (O14744 whole entry, species assumed): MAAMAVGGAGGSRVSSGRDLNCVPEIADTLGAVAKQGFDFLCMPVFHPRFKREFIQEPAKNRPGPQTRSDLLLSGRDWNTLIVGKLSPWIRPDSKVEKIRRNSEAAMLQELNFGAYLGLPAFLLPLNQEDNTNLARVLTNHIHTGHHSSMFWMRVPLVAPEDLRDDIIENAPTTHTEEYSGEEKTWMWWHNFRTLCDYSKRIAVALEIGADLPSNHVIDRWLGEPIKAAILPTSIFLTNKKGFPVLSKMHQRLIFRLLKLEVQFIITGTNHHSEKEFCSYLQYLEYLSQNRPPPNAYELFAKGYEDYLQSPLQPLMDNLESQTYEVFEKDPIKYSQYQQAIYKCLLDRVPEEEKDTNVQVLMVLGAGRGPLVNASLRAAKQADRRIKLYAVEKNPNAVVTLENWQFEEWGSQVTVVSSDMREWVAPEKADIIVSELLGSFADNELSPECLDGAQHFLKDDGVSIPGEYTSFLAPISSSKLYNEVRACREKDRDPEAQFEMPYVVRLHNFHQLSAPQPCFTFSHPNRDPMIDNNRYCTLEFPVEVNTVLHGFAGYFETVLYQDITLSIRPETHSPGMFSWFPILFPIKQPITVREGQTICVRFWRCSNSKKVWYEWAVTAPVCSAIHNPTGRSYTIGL
Chain of PRMT5 (Q9BQA1 whole entry partner, species assumed): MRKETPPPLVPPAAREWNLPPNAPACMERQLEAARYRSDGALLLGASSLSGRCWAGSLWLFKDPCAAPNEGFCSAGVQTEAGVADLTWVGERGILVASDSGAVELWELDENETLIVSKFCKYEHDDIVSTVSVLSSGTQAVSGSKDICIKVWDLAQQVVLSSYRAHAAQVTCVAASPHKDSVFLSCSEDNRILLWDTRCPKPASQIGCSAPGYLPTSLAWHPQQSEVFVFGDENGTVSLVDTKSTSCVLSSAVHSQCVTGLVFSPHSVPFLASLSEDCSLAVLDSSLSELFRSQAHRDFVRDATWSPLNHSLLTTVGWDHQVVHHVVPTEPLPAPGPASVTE
Chain of PRMT8 (Q9NR22 whole entry): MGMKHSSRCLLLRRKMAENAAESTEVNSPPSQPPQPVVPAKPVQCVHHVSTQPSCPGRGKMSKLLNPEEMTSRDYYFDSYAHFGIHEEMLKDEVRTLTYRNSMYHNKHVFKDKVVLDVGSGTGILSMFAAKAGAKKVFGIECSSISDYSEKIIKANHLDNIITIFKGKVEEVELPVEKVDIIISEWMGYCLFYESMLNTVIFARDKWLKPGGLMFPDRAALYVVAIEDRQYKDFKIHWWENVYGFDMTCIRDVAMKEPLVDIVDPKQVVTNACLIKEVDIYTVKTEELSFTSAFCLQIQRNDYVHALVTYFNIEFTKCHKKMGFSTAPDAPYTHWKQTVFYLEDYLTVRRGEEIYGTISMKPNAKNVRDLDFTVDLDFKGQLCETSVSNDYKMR

IC50 [1] [µM]	IC50 [2] [µM]	IC50 [3] [µM]	Structure (SMILES)
≥ 10	≥ 10	< 0.05	CCOCC1(COCC)CCC(c2cccnc2CN(C)CCNC)CC1 [P207]
≥ 10	≥ 10	< 0.05	CNCCN(C)Cc1ccccc1C1CCN(c2ccccc2)CC1 [P023]
≥ 10	≥ 10	< 0.05	CNCCN(C)Cc1ncccc1N1CCc2ccccc2CC1 [P118]
